US9708359B2, “Pyrrolopyrimidine nucleosides and analogs thereof” (Chimerix, Inc., priority 2015, dated 2017)

Experiments:
mouse norovirus = assay: Mouse Norovirus (MNV) assay in RAW cells; details: Norovirus, in Mus musculus, read-out: MNV Mean EC50, RAW cells
[1] = Cytotoxicity (CC50) in RAW cells; details: mouse
human norovirus = assay: Efficacy of Compound 1 Against Human Norovirus (viral titer); assay type: cell-based; details: cells pretreated with 25 μM compound for two hours; duplicate (FIGS. 4-6)
Experimental: The efficacy of compound 1 for inhibiting norovirus was compared to DMSO (as a control), compound 2, and 2′-C-methylcytidine triphosphate (2′CmeC TP). Cells were pretreated with 25 μM of experimental compound for two hours. Virus inoculum was added for two hours, and unbound virus washed off and fresh media and fresh experimental compound was added.

| SMILES | EC50 (mouse norovirus) [µM] | CC50 [1] [µM] | viral titer (human norovirus) |
| --- | --- | --- | --- |
| C[C@@]1(O)[C@H](O)[C@@H](CO)O[C@H]1n1ccc(N)nc1=O [2′-C-Methyl Cytidine, reference compound] | 3.2 | 34.3 |  |
| C[C@@]1(O)[C@H](O)[C@@H](COP(=O)(O)OP(=O)(O)OP(=O)(O)O)O[C@H]1n1ccc(N)nc1=O [2′CmeC TP, 2′-C-methylcytidine triphosphate, reference compound] |  |  | increased almost two orders of magnitude |
